Data taken from patent publication US12606528B2, “Methods and materials for inhibiting NF-kB activity” (University of Pittsburgh - Of the Commonwealth System of …, priority 2019, dated 2026).
Read-outs that look alike come from different tables or passages of the source.

System: NF-κB
Assay: NF-κB assay: THP1-NF-κB-LUC cells, LPS-stimulated secreted luciferase
Assay type: cell-based
Details: read-out: IC50 (NF-κB assay)
Method: FIG. 1 contains line plots showing NF-κB activity of exemplified compounds. 25k THP1-NF-κB-LUC cells were dispensed into 384 well plate (per well). Cells were treated with compounds (2 μM and 0.2 μM) for 2 hours before addition of LPS (10 ng/mL) for 18 hours. Secreted luciferase activity were measured using quant-luc reagents (1 bag of luc reagent dilute to 40 mL, use 10 μL per well). Data were normalized to vehicle control and graphed. Structures of selected exemplified compounds are shown.
FIG. 2 contains heat charts showing NF-κB activity of exemplified compounds as a function of concentration. 25k THP1-NF-κB-LUC cells were dispensed into 384 well plate (per well). Cells were treated with compounds (with serial dilution) for 2 hours before addition of LPS (10 ng/ml) for 18 hours. Secreted luciferase activity were measured using quant-luc reagents (1 bag of luc reagent dilute to 40 mL, use 10 μL per well). Structures of selected exemplified compounds are shown.
25k THP1-NF-κB-LUC cells were dispensed into 384 well plate (per well). Cells were treated with compounds with various concentrations for 2 hours before addition of LPS (10 ng/mL) for 18 hours. Secreted luciferase activity were measured using quant-luc reagents (1 bag of luc reagent dilute to 40 mL, use 10 μL per well). Data were normalized to vehicle control and graphed. Compound IC50 towards inhibiting NF-κB were determined through Prism. Similarly, 10k human PBMCs cells were cultured in 384 well plate (per well). Cells were treated with compounds with various concentrations for 2 hours before addition of LPS (10 ng/ml) for 18 hours, and supernatants were collected and assayed for TNF ELISA. Compound IC50 towards inhibiting TNF release were determined through Prism. • Activity: “+”>10 μM, “++”>1 μM and <10 μM, “+++”>0.1 μM and <1 μM, “++++”<0.1 μM.

[1] = THP1-NF-κB-LUC cells, LPS-stimulated
[2] = THP1-NF-κB-LUC cells, compounds 2 hours before LPS (10 ng/mL) for 18 hours, secreted luciferase

Compound | IC50 [1] [µM] | further results
CCC(C)S(=O)(=O)c1oc(-c2ccc(F)cc2)nc1S(=O)(=O)c1ccc(C)cc1 (stereo not shown) [BC18521] | < 0.1 | 
CS(=O)(=O)c1oc(-c2ccc(F)cc2)nc1S(=O)(=O)c1ccc(Cl)cc1 [BC18522] | < 0.1 | 
O=S(=O)(Cc1ccc(F)cc1)c1oc(-c2ccccc2)nc1S(=O)(=O)c1ccccc1 [BC18523] | > 10 | 
CCS(=O)(=O)c1oc(-c2ccccc2)nc1S(=O)(=O)c1ccc(Cl)cc1 [BC18524] | 1 to 10 | 
CC(=O)CSc1oc(-c2ccc(C)cc2)nc1S(=O)(=O)c1ccccc1 [BC18525] | > 10 | 
CCSc1oc(-c2ccc(F)cc2)nc1S(=O)(=O)c1ccccc1 [BC18526] | 1 to 10 | 
CC(C)CSc1oc(-c2ccc(F)cc2)nc1S(=O)(=O)c1ccccc1 [BC18527] | 1 to 10 | 
Cc1ccc(S(=O)(=O)c2nc(-c3ccc(F)cc3)oc2SCC(C)C)cc1 [BC18528] | > 10 | 
Cc1ccc(S(=O)(=O)c2nc(-c3ccc(F)cc3)oc2SCC(C)C)cc1 [BC18529] | 1 to 10 | 
O=C(CSc1oc(-c2ccc(F)cc2)nc1S(=O)(=O)c1ccc(Cl)cc1)c1ccc(F)cc1 [BC18530] | 1 to 10 | 
CC(C)S(=O)(=O)c1oc(-c2ccc(F)cc2)nc1S(=O)(=O)c1ccccc1 [BC18531] | < 0.1 | 
CCS(=O)(=O)c1oc(-c2ccc(F)cc2)nc1S(=O)(=O)c1ccc(F)cc1 [BC18532] | < 0.1 | 
CCCS(=O)(=O)c1oc(-c2ccc(F)cc2)nc1S(=O)(=O)c1ccc(Cl)cc1 [BC18533] | < 0.1 | 
O=S(=O)(c1ccccc1)c1nc(-c2ccccc2)oc1SCc1ccccc1F [BC18534] | > 10 | 
CCCSc1oc(-c2ccccc2)nc1S(=O)(=O)c1ccc(Cl)cc1 [BC18535] | 1 to 10 | 
CSc1oc(-c2ccc(C)cc2)nc1S(=O)(=O)c1ccc(Cl)cc1 [BC18536] | > 10 | 
CCCSc1oc(-c2ccc(F)cc2)nc1S(=O)(=O)c1ccccc1 [BC18537] | 1 to 10 | 
CCCCCSc1oc(-c2ccc(F)cc2)nc1S(=O)(=O)c1ccccc1 [BC18538] | > 10 | 
NC(=O)CSc1oc(-c2ccc(F)cc2)nc1S(=O)(=O)c1ccc(F)cc1 [BC18539] | > 10 | 
CCCCCSc1oc(-c2ccc(F)cc2)nc1S(=O)(=O)c1ccc(F)cc1 [BC18540] | > 10 | 
CC(C)CSc1oc(-c2ccc(F)cc2)nc1S(=O)(=O)c1ccc(Cl)cc1 [BC18541] | > 10 | 
CCCCS(=O)(=O)c1oc(-c2ccc(F)cc2)nc1S(=O)(=O)c1ccccc1 [BC18542] | < 0.1 | 
CCCS(=O)(=O)c1oc(-c2ccc(F)cc2)nc1S(=O)(=O)c1ccc(F)cc1 [BC18543] | < 0.1 | 
CCCCS(=O)(=O)c1oc(-c2ccc(F)cc2)nc1S(=O)(=O)c1ccc(Cl)cc1 [BC18544] | 0.1 to 1 | 
CSc1oc(-c2ccccc2)nc1S(=O)(=O)c1ccc(F)cc1 [BC18545] | 1 to 10 | 
CC(C)Sc1oc(-c2ccccc2)nc1S(=O)(=O)c1ccc(Cl)cc1 [BC18546] | 1 to 10 | 
CCSc1oc(-c2ccc(C)cc2)nc1S(=O)(=O)c1ccc(Cl)cc1 [BC18547] | > 10 | 

Compound | IC50 [1] [µM] | further results
CC(C)Sc1oc(-c2ccc(F)cc2)nc1S(=O)(=O)c1ccccc1 [BC18548] | 1 to 10 | 
CSc1oc(-c2ccc(F)cc2)nc1S(=O)(=O)c1ccc(C)cc1 [BC18549] | > 10 | 
CSc1oc(-c2ccc(F)cc2)nc1S(=O)(=O)c1ccc(F)cc1 [BC18550] | > 10 | 
NC(=O)CSc1oc(-c2ccc(F)cc2)nc1S(=O)(=O)c1ccc(Cl)cc1 [BC18551] | > 10 | 
CSc1oc(-c2ccc(F)cc2)nc1S(=O)(=O)c1ccc(Br)cc1 [BC18552] | > 10 | 
CCC(C)S(=O)(=O)c1oc(-c2ccc(F)cc2)nc1S(=O)(=O)c1ccccc1 (stereo not shown) [BC18553] | < 0.1 | 
CC(C)S(=O)(=O)c1oc(-c2ccc(F)cc2)nc1S(=O)(=O)c1ccc(F)cc1 [BC18554] | < 0.1 | 
CC(C)CS(=O)(=O)c1oc(-c2ccc(F)cc2)nc1S(=O)(=O)c1ccc(Cl)cc1 [BC18555] | < 0.1 | 
CCSc1oc(-c2ccccc2)nc1S(=O)(=O)c1ccc(F)cc1 [BC18556] | 1 to 10 | 
CCCCSc1oc(-c2ccccc2)nc1S(=O)(=O)c1ccc(Cl)cc1 [BC18557] | 1 to 10 | 
CCCSc1oc(-c2ccc(C)cc2)nc1S(=O)(=O)c1ccc(Cl)cc1 [BC18558] | > 10 | 
CCCCSc1oc(-c2ccc(F)cc2)nc1S(=O)(=O)c1ccccc1 [BC18559] | 1 to 10 | 
CCSc1oc(-c2ccc(F)cc2)nc1S(=O)(=O)c1ccc(C)cc1 [BC18560] | 1 to 10 | 
CCSc1oc(-c2ccc(F)cc2)nc1S(=O)(=O)c1ccc(F)cc1 [BC18561] | 1 to 10 | 
CSc1oc(-c2ccc(F)cc2)nc1S(=O)(=O)c1ccc(Cl)cc1 [BC18562] | > 10 | 
CCSc1oc(-c2ccc(F)cc2)nc1S(=O)(=O)c1ccc(Br)cc1 [BC18563] | > 10 | 
O=S(=O)(Cc1ccccc1F)c1oc(-c2ccc(F)cc2)nc1S(=O)(=O)c1ccccc1 [BC18564] | < 0.1 | 
CCCCS(=O)(=O)c1oc(-c2ccc(F)cc2)nc1S(=O)(=O)c1ccc(F)cc1 [BC18565] | < 0.1 | 
CS(=O)(=O)c1oc(-c2ccc(F)cc2)nc1S(=O)(=O)c1ccc(Br)cc1 [BC18566] | < 0.1 | 
CCCSc1oc(-c2ccccc2)nc1S(=O)(=O)c1ccc(F)cc1 [BC18567] | > 10 | 
CCC(C)Sc1oc(-c2ccccc2)nc1S(=O)(=O)c1ccc(Cl)cc1 (stereo not shown) [BC18568] | 1 to 10 | 
Cc1ccc(-c2nc(S(=O)(=O)c3ccc(Cl)cc3)c(SC(C)C)o2)cc1 [BC18569] | 1 to 10 | 
CCC(C)Sc1oc(-c2ccc(F)cc2)nc1S(=O)(=O)c1ccccc1 (stereo not shown) [BC18570] | 1 to 10 | 
CCCSc1oc(-c2ccc(F)cc2)nc1S(=O)(=O)c1ccc(C)cc1 [BC18571] | 1 to 10 | 
CCCSc1oc(-c2ccc(F)cc2)nc1S(=O)(=O)c1ccc(F)cc1 [BC18572] | > 10 | 
CCSc1oc(-c2ccc(F)cc2)nc1S(=O)(=O)c1ccc(Cl)cc1 [BC18573] | 1 to 10 | 
CCCSc1oc(-c2ccc(F)cc2)nc1S(=O)(=O)c1ccc(Br)cc1 [BC18574] | > 10 | 

Compound | IC50 [1] [µM] | further results
CC(C)CS(=O)(=O)c1oc(-c2ccc(F)cc2)nc1S(=O)(=O)c1ccccc1 [BC18575] | < 0.1 | 
CCC(C)S(=O)(=O)c1oc(-c2ccc(F)cc2)nc1S(=O)(=O)c1ccc(F)cc1 (stereo not shown) [BC18576] | < 0.1 | 
CCS(=O)(=O)c1oc(-c2ccc(F)cc2)nc1S(=O)(=O)c1ccc(Br)cc1 [BC18577] | < 0.1 | 
CC(C)CSc1oc(-c2ccccc2)nc1S(=O)(=O)c1ccc(F)cc1 [BC18578] | 1 to 10 | 
CC(C)CSc1oc(-c2ccccc2)nc1S(=O)(=O)c1ccc(Cl)cc1 [BC18579] | 1 to 10 | 
Cc1ccc(-c2nc(S(=O)(=O)c3ccc(Cl)cc3)c(SCC(C)C)o2)cc1 [BC18580] | > 10 | 
O=S(=O)(c1ccccc1)c1nc(-c2ccc(F)cc2)oc1SCc1ccc(F)cc1 [BC18581] | 1 to 10 | 
Cc1ccc(S(=O)(=O)c2nc(-c3ccc(F)cc3)oc2SC(C)C)cc1 [BC18582] | 1 to 10 | 
CC(C)Sc1oc(-c2ccc(F)cc2)nc1S(=O)(=O)c1ccc(F)cc1 [BC18583] | 1 to 10 | 
CCCSc1oc(-c2ccc(F)cc2)nc1S(=O)(=O)c1ccc(Cl)cc1 [BC18584] | > 10 | 
CC(C)Sc1oc(-c2ccc(F)cc2)nc1S(=O)(=O)c1ccc(Br)cc1 [BC18585] | 1 to 10 | 
Cc1ccc(S(=O)(=O)c2nc(-c3ccc(F)cc3)oc2S(=O)(=O)C(C)C)cc1 [BC18586] | < 0.1 | 
CC(C)CS(=O)(=O)c1oc(-c2ccc(F)cc2)nc1S(=O)(=O)c1ccc(F)cc1 [BC18587] | < 0.1 | 
CCCS(=O)(=O)c1oc(-c2ccc(F)cc2)nc1S(=O)(=O)c1ccc(Br)cc1 [BC18588] | < 0.1 | 
Cc1cc2c(cc1S(=O)(=O)Nc1ccc(CCC(=O)O)cc1)OCC(=O)N2 [BC181300] |  | IC50 [2]: > 10 µM
COc1cc(NS(=O)(=O)c2cc3c(cc2C)NC(=O)CO3)cc(OC)c1 [BC181301] |  | IC50 [2]: > 10 µM
CCOc1ccc(NS(=O)(=O)c2cc3c(cc2C)NC(=O)CO3)cc1 [BC181302] |  | IC50 [2]: < 0.1 µM
CC(=O)c1cccc(NS(=O)(=O)c2cc3c(cc2C)NC(=O)CO3)c1 [BC181303] |  | IC50 [2]: < 0.1 µM
CCCCN(c1ccccc1)S(=O)(=O)c1cc2c(cc1C)NC(=O)CO2 [BC181304] |  | IC50 [2]: > 10 µM
Cc1ccc(NS(=O)(=O)c2cc3c(cc2C)NC(=O)CO3)cc1Cl [BC181305] |  | IC50 [2]: < 0.1 µM
CC(=O)N1CCOc2cc(S(=O)(=O)Nc3ccc(Br)c(C)c3)c(C)cc21 [BC181306] |  | IC50 [2]: 1 to 10 µM
COc1cc(NS(=O)(=O)c2cc3c(cc2C)N(C(C)=O)CCO3)cc(OC)c1 [BC181307] |  | IC50: > 10 µM
COc1cccc(NS(=O)(=O)c2cc3c(cc2C)N(C)CCO3)c1 [BC181308] |  | IC50 [2]: > 10 µM
Cc1ccc(NS(=O)(=O)c2cc3c(cc2C)N(C)CCO3)cc1F [BC181309] |  | IC50 [2]: > 10 µM
Cc1cc2c(cc1S(=O)(=O)Nc1ccccc1)OCC(=O)N2 [BC181310] |  | IC50 [2]: < 0.1 µM
